According to patent US9388468B2, “Truncated CD20 protein, deltaCD20” (ETABLISSEMENT FRANCAIS DU SANG (EFS), priority 2008, dated 2016):

System: RMAS-HHD cells
Assay: T cytotoxic response (CTL) induction by peptide vaccination, 51Cr release specific lysis
Assay type: in vivo
Description: The immunogenicity of the ΔCD20a peptides was evaluated by generating CTL on HLA-A2/DR1 and Knock-Out (KO) transgenic mice for H-2 class I and II.
The mice (4 per group) are immunised with pools of 2 or 3 peptides (2 injections at the base of the tail at an 8-day interval) with: 50 μg of each peptide, 100 μg of helper peptide (20 mers peptide from CMV-specific pp65), the whole co-emulsified with incomplete Freud adjuvant.
Seven days after the second immunisation, the spleens of the mice are removed and the splenocytes are re-stimulated in vitro with 4 μg/ml of each peptide separately. On the fifth day of culture, the respondent populations are tested to determine specific cytotoxicity. The cells, with conclusive cytotoxicity, are re-stimulated in vitro at one-week intervals to obtain specific CTLs.
RMAS-HHD cells are used as targets to study cytotoxicity. These target cells are filled with 10 μg/ml of the peptide under test, or a non-relevant control peptide, at 37° C. for 90 minutes and labelled with 100 μCi of 51Cr for 90 minutes, and washed three times. […] After incubation, 50 μl of supernatant is collected, transferred into specific plates (Lumaplate) and the radioactivity is measured in a γ counter. The specific lysis percentage is calculated using the formula: [(experimental 51 Cr release−spontaneous 51 Cr release)/(maximum 51 Cr release−spontaneous 51 Cr release)]×100.

peptide No. 4: ΔCD20-specific peptide overlapping the alternative splicing junction zone, restricted for HLA-A*0201; probably SEQ ID NO: 9 (RMSSLELVI)
mice that developed T cytotoxic response against the peptide (immunisation group A, 4 mice per group, 2 injections of 50 μg of each peptide, splenocytes re-stimulated in vitro): Three out of 4 | CTLs generated by immunisation killing peptide-charged RMAS-HHD targets (targets charged with 10 μg/ml peptide, not cells charged with non-relevant peptide): generates CTLs killing RMAS-HHD targets charged with said peptide
